{"source": "patent US9795570B2", "about": "“Modulation of macrophage phenotype by emodin” (University of South Carolina, priority 2016, dated 2017)", "key": {"[1]": {"tested_on": "mouse peritoneal macrophages", "assay": "Whole genome microarray, macrophages stimulated with IL4", "format": "cell-based", "procedure": "Three milliliters of 4% Thioglycolate solution was injected intraperitoneally into 8-12 week old C57BL/6 mice. Three days later, macrophages were collected by lavaging the peritoneal cavity with PBS. The cells were then resuspended in DMEM containing 10% FBS. After 2 h, non-adherent cells were washed away with PBS and the macrophages were cultured overnight in serum free DMEM. The macrophages were then treated with DMEM containing IL4 (10 ng/ml, BioAbChem Inc. Ladson, S.C.) or LPS (100 ng/ml, Sigma-Aldrich) and IFNγ (20 ng/ml, BioAbChem Inc) with or without emodin. Emodin was purchased from Nanjing Langze Medicine and Technology Co. Ltd (Nanjing, China) and dissolved in DMSO at a concentration of 10 mg/ml as a stock solution.\nMicroarray analysis was carried out as described previously, with a few alterations. Macrophages were stimulated with IL4 for 6 h or LPS+IFNγ for 24 h with or without emodin (50 μM). Samples were prepared in biological replicates of 4. Cells were lysed with Qiazol and RNA was extracted using Qiagen's miRNeasy kit. Agilent's 2100 Bioanalyzer was used to determine the quality and quantity of the RNA. […] The RNA was amplified and labeled with Agilent's Low Input Quick Amp Labeling Kit (Agilent) according to the manufacturer's instructions. Labeled RNA was then purified using Qiagen's RNeasy Mini Kit (Qiagen, Valencia, Calif.) and dye incorporation and cRNA yield were assessed. Labeled samples were hybridized to Agilent Whole Mouse Genome Microarrays 8×60K (Agilent) using Agilent's Gene Expression Hybridization Kit (Agilent) according to the manufacturer's instructions. Microarray analysis was performed using an Agilent DNA Microarray Scanner System (Cat. # G2565CA).\nFor microarray analysis, data was extracted from images with Feature Extractor Software version 10.7.3.1 (Agilent); background correction using detrending algorithms was performed. Subsequently, background-corrected data was uploaded into GeneSpring GX version 11.5.1 for analysis. In this process, data was log 2 transformed, quantile normalized and baseline transformed using the median of all samples. […] Differentially expressed genes were determined by analysis of the data using the Mann-Whitney unpaired statistics. A cutoff p-value of 0.05 and a fold change cutoff value of 2.0 were used to filter the data. Pathway analysis was performed using Ingenuity Pathway Analysis software."}, "[2]": {"tested_on": "mouse peritoneal macrophages", "assay": "Macrophage memory experiments (re-stimulation after washout)", "format": "cell-based", "procedure": "For macrophage memory experiments, macrophages were stimulated overnight with IL4, IFNγ, and/or emodin. Following, the cells were washed 3× with PBS and cultured for 2 or 5 days in DMEM with 2% FBS. The media were changed every 2 days. The cells were then re-stimulated with IL4 or LPS for 6 h.\nFor qPCR, macrophages were lysed with Qiazol and RNA was extracted using Zymo research Direct-zol RNA isolation kit. cDNA was then made from 1 microgram of RNA using iScript cDNA Synthesis Kit (Bio-Rad Life Science). Run conditions were 95° C. for 10 s, 58° C. for 15 s, 70° C. for 15 s. Samples were run in duplicate on a Bio-rad CFX Real Time thermocycler."}, "4T1 cells": {"tested_on": "4T1 cells", "assay": "Tumor cell gene expression (qPCR)", "format": "cell-based, mouse", "details": "24 h post-treatment", "procedure": "(§1) For qPCR, cells were lysed with Qiazol, and RNA was extracted using Zymo research Direct-zol RNA isolation kit. cDNA was then made from 1 μg of RNA using iScript cDNA Synthesis Kit (Bio-Rad Life Science, Hercules, Calif.). Run conditions were 95° C. for 10 s, 58° C. for 15 s, 70° C. for 15 s. Samples were run in duplicate on a Bio-rad CFX Real Time thermocycler."}, "EO771 cells": {"tested_on": "EO771 cells", "assay": "Tumor cell gene expression (qPCR)", "format": "cell-based, mouse", "details": "24 h post-treatment", "procedure": "as §1"}}}
{"smiles": "Cc1cc(O)c2c(c1)C(=O)c1cc(O)cc(O)c1C2=O", "note": "[emodin]", "values": [{"measurement": "fold reduction of IL4 induced expression", "setting": "[1]; Arg1, microarray, emodin 50 μM", "value": 7.69, "unit": "fold"}, {"measurement": "fold increase of expression under IL4 stimulation", "setting": "[1]; CXCL2, microarray", "value": 60.6, "unit": "fold"}, {"measurement": "fold increase of expression under IL4 stimulation", "setting": "[1]; CXCL10, microarray", "value": 15.5, "unit": "fold"}, {"measurement": "fold reduction of IL4 induced expression", "setting": "[1]; Ch3I3, microarray, emodin 50 μM", "value": 4.24, "unit": "fold"}, {"measurement": "fold reduction of IL4 induced expression", "setting": "[1]; IRF4, microarray, emodin 50 μM", "value": 97.43, "unit": "fold"}, {"measurement": "fold reduction of IL4 induced expression", "setting": "[1]; Mrc1, microarray, emodin 50 μM", "value": 2.29, "unit": "fold"}, {"measurement": "fold reduction of IL4 induced expression", "setting": "[1]; SOCS1, microarray, emodin 50 μM", "value": 22.9, "unit": "fold"}, {"measurement": "fold increase of expression under IL4 stimulation", "setting": "[1]; TNFα, microarray", "value": 2.7, "unit": "fold"}, {"measurement": "IL4 responsive genes whose induced changes were inhibited", "setting": "[1]; emodin 50 μM, IL4 6 h", "value": "~60", "unit": "%"}, {"measurement": "Em + LPS vs. LPS/IFN (gene expression)", "setting": "[1]; gene Arg1, microarray, emodin 50 μM", "value": "−7.69"}, {"measurement": "Em + LPS vs. LPS/IFN (gene expression)", "setting": "[1]; gene CCL7, microarray, emodin 50 μM", "value": "−4.16"}, {"measurement": "Em + LPS vs. LPS/IFN (gene expression)", "setting": "[1]; gene CCL11, microarray, emodin 50 μM", "value": "−11.31"}, {"measurement": "Em + LPS vs. LPS/IFN (gene expression)", "setting": "[1]; gene CCL12, microarray, emodin 50 μM", "value": 2.30}, {"measurement": "Em + LPS vs. LPS/IFN (gene expression)", "setting": "[1]; gene CCL28, microarray, emodin 50 μM", "value": 2.27}, {"measurement": "Em + LPS vs. LPS/IFN (gene expression)", "setting": "[1]; gene CDH1, microarray, emodin 50 μM", "value": "−5.72"}, {"measurement": "Em + LPS vs. LPS/IFN (gene expression)", "setting": "[1]; gene CDKN1A, microarray, emodin 50 μM", "value": 29.78}, {"measurement": "Em + LPS vs. LPS/IFN (gene expression)", "setting": "[1]; gene CISH, microarray, emodin 50 μM", "value": "−7.11"}, {"measurement": "Em + LPS vs. LPS/IFN (gene expression)", "setting": "[1]; gene CXCL2, microarray, emodin 50 μM", "value": 60.63}, {"measurement": "Em + LPS vs. LPS/IFN (gene expression)", "setting": "[1]; gene CXCL10, microarray, emodin 50 μM", "value": 15.05}, {"measurement": "Em + LPS vs. LPS/IFN (gene expression)", "setting": "[1]; gene CXCR1, microarray, emodin 50 μM", "value": 12.40}, {"measurement": "Em + LPS vs. LPS/IFN (gene expression)", "setting": "[1]; gene Ccl2, microarray, emodin 50 μM", "value": "−4.26"}, {"measurement": "Em + LPS vs. LPS/IFN (gene expression)", "setting": "[1]; gene Chi3I3, microarray, emodin 50 μM", "value": "−4.24"}, {"measurement": "Em + LPS vs. LPS/IFN (gene expression)", "setting": "[1]; gene FCGR2B, microarray, emodin 50 μM", "value": "−2.15"}, {"measurement": "Em + LPS vs. LPS/IFN (gene expression)", "setting": "[1]; gene FLT1, microarray, emodin 50 μM", "value": "−27.09"}, {"measurement": "Em + LPS vs. LPS/IFN (gene expression)", "setting": "[1]; gene IL1R1, microarray, emodin 50 μM", "value": "−2.15"}, {"measurement": "Em + LPS vs. LPS/IFN (gene expression)", "setting": "[1]; gene IL6, microarray, emodin 50 μM", "value": "−5.30"}, {"measurement": "Em + LPS vs. LPS/IFN (gene expression)", "setting": "[1]; gene IL19, microarray, emodin 50 μM", "value": "−20.01"}, {"measurement": "Em + LPS vs. LPS/IFN (gene expression)", "setting": "[1]; gene IRF4, microarray, emodin 50 μM", "value": "−97.43"}, {"measurement": "Em + LPS vs. LPS/IFN (gene expression)", "setting": "[1]; gene IRF5, microarray, emodin 50 μM", "value": "−2.58"}, {"measurement": "Em + LPS vs. LPS/IFN (gene expression)", "setting": "[1]; gene ITGB8, microarray, emodin 50 μM", "value": "−4.32"}, {"measurement": "Em + LPS vs. LPS/IFN (gene expression)", "setting": "[1]; gene MMP13, microarray, emodin 50 μM", "value": 3.68}, {"measurement": "Em + LPS vs. LPS/IFN (gene expression)", "setting": "[1]; gene Mrc1, microarray, emodin 50 μM", "value": "−2.29"}, {"measurement": "Em + LPS vs. LPS/IFN (gene expression)", "setting": "[1]; gene PLA2G5, microarray, emodin 50 μM", "value": 4.26}, {"measurement": "Em + LPS vs. LPS/IFN (gene expression)", "setting": "[1]; gene PTGS2, microarray, emodin 50 μM", "value": 2.56}, {"measurement": "Em + LPS vs. LPS/IFN (gene expression)", "setting": "[1]; gene RBP4, microarray, emodin 50 μM", "value": "−15.56"}, {"measurement": "Em + LPS vs. LPS/IFN (gene expression)", "setting": "[1]; gene SOCS1, microarray, emodin 50 μM", "value": "−22.90"}, {"measurement": "Em + LPS vs. LPS/IFN (gene expression)", "setting": "[1]; gene SOCS2, microarray, emodin 50 μM", "value": "−5.47"}, {"measurement": "Em + LPS vs. LPS/IFN (gene expression)", "setting": "[1]; gene TNF, microarray, emodin 50 μM", "value": 2.69}, {"measurement": "expression of CDKN1A (p21)", "setting": "[1]; microarray", "value": "increased the expression"}, {"measurement": "expression of M2 genes YM1 and Mrc1 in IL4-stimulated cells", "setting": "[1]; microarray", "value": "reducing them"}, {"measurement": "macrophage response to IL4 after emodin pretreatment alone", "setting": "[2]; 50 μM 24 h, 2-d washout, IL4 6 h", "value": "significantly reduced"}, {"measurement": "macrophage response to LPS after emodin pretreatment alone", "setting": "[2]; 50 μM 24 h, 2-d washout, LPS 6 h", "value": "no effect"}, {"measurement": "nuclear STAT1 or STAT6 after 5 days of wash-out", "setting": "[2]; IFNγ or IL4 pretreated cells with or without emodin", "value": "no significant difference"}, {"measurement": "macrophage response to LPS after IL4 pre-treatment (crossover)", "setting": "[2]; co-pretreatment with emodin", "value": "did not have any effects"}, {"measurement": "response to secondary IL-4 stimulation after IFNγ pretreatment (crossover)", "setting": "[2]; emodin co-pretreatment", "value": "decreased the response"}, {"measurement": "response to second LPS or IL-4 treatment (iNOS, Arg1 expression)", "setting": "[2]; first treated with emodin 50 μM with IFNγ or IL4 24 h, 2 d or 5 d washout", "value": "significantly diminished"}, {"measurement": "expression of MCP1, CSF1, and CSF2", "setting": "4T1 cells", "value": "significantly inhibited"}, {"measurement": "tumor cell expression of Thy1", "setting": "4T1 cells", "value": "significantly inhibited"}, {"measurement": "expression of MCP1, CSF1, and CSF2", "setting": "EO771 cells", "value": "significantly inhibited"}, {"measurement": "tumor cell expression of Thy1", "setting": "EO771 cells", "value": "significantly inhibited"}]}
